Key:
[1] = tested on: mouse model of the acute renal failure induced by cisplatin; test: Weight measurement in cisplatin-induced mice; format: in vivo; conditions: Amifostine 200 mg/kg i.p. 30 min after cisplatin 20 mg/Kg day 7
Experimental: (§1) Male ICR mice aged 7-8 weeks (each weighing about 30-32 grams) were divided into 6 groups, 10 mice per group, and the six groups correspond to a control group, an induction group, a positive control group and low-medium-high dose brown Flammulina velutipes water extract groups. The entire process was limited to 10 days. […] Both of the induction and the sacrifice were performed in a fasting state.
(§2) The administration was performed for 10 consecutive days while feeding at around 10 a.m. Normal food was provided during the above period. […] On the day before induction, all […] groups were treated on an empty stomach.

[2] = tested on: mouse model of the acute renal failure induced by cisplatin; test: Measurement on kidney weight/body weight ratio; format: in vivo; conditions: Amifostine 200 mg/kg i.p. 30 min after cisplatin 20 mg/Kg day 7
Experimental: as §1, §2
Kidneys were removed from the mouse body, and adrenal glands and surrounding fat were removed, washed with saline and then weighed immediately. The weights of the both kidneys were obtained and compared with the weight of the mouse measured on the last day, and the difference between the kidney/weight ratios of the mice was calculated.

iNOS = test: Western blotting of kidney, iNOS; format: in vivo, mouse
Experimental: as §1, §2
(§3) The kidneys were homogenized with a PBS solution and diluted 10 folds to form a homogeneous solution, and the homogeneous solution was centrifuged at 12,000 rpm at 4° C. for 20 minutes. The supernatant was taken to quantify each protein concentration, and treated to have a uniform concentration. A protein was added to a protein dye to form a sample, placed in a drying bath at 100° C., and heated for 5 minutes. Then, the sample was injected into 10%, 15% or 8% of colloid prepared with 40% of acrylamide/bisN,N-methylenbisacrylamide, in which the ratio of acrylamide to bisN,N-methylenbisacrylamide was 29:1. […]
(§4) After completion of the transfer, blocking was performed for 1 hour using milk. […] In addition, image data were acquired and analyzed by the Image J system.

COX-2 = test: Western blotting of kidney, COX-2; format: in vivo, mouse
Experimental: as §1, §2, §3, §4

TLR4 = test: Western blotting of kidney, TLR4; format: in vivo, mouse
Experimental: as §1, §2, §3, §4

p-NFκB = test: Western blotting of kidney, p-NFκB; format: in vivo, mouse
Experimental: as §1, §2, §3, §4

[3] = tested on: superoxide dismutase (SOD); test: Western blotting of kidney, SOD; format: in vivo, mouse
Experimental: as §1, §2, §3, §4

catalase = format: in vivo, mouse; conditions: kidney; Amifostine 200 mg/Kg i.p. or WFV 1000 mg/kg oral in advance
Experimental: as §1, §2, §3, §4

[4] = tested on: glutathione peroxidase (GPX1); test: Western blotting of kidney, GPX1; format: in vivo, mouse
Experimental: as §1, §2, §3, §4

Bcl-2 = test: Western blotting of kidney, Bcl-2; format: in vivo, mouse
Experimental: as §1, §2, §3, §4

BAX = test: Western blotting of kidney, BAX; format: in vivo, mouse
Experimental: as §1, §2, §3, §4

NO free radicals = test: Nitrite analysis of mouse serum; format: in vivo; conditions: cisplatin 20 mg/Kg i.p.
Experimental: as §1, §2
Mouse serum was taken by 100 μL each and added to a new 96-well microassay plate. Then, Griess Reagent was added by the same amount of […]. The Griess reagent was obtained by mixing an aqueous solution of N-(1-naphthyl)ethylenediamine with a 1% sulfanilamide solution dissolved in 5% phosphoric acid in the volumetric ratio of 1:1. Thereafter, the absorbance was measured at a wavelength of 540 nm using a microplate spectrometer (Molecular Devices), so that the ability of removing NO free radicals was measured in each group.

TNF-α = test: Cytokine analysis (ELISA), TNF-α; format: in vivo, mouse; conditions: serum ELISA; cisplatin 20 mg/Kg i.p. vs control group
Experimental: as §1, §2
(§5) After sacrificing the mice to collect corresponding blood, and serum was separated and then diluted 10-fold or 5-fold. TNF-α, IL-6 and IL-1β were analyzed according to the multiple antibody sandwich principle by using BioLegend Company's ELISA kits.
(§6) In a 96-well microassay plate, 100 μL of capture antibody was added to each well, and placed at room temperature overnight. […] Finally, 2 equivalents of 100 μL of sulfuric acid as a stop solution was added, and the change in absorbance at a wavelength of 450 nm was measured with a microplate spectrometer. The concentration of cytokines in serum was additionally calculated.

IL-1β = test: Cytokine analysis (ELISA), IL-1β; format: in vivo, mouse; conditions: serum ELISA; cisplatin 20 mg/Kg i.p. vs control group
Experimental: as §1, §2, §5, §6

IL-6 = test: Cytokine analysis (ELISA), IL-6; format: in vivo, mouse; conditions: serum ELISA; cisplatin 20 mg/Kg i.p. vs control group
Experimental: as §1, §2, §5, §6

Nrf2 = test: Western blotting of kidney, Nrf2; format: in vivo, mouse; conditions: cisplatin 20 mg/Kg i.p. vs control group
Experimental: as §1, §2, §3, §4

HO-1 = test: Western blotting of kidney, HO-1; format: in vivo, mouse; conditions: cisplatin 20 mg/Kg i.p. vs control group
Experimental: as §1, §2, §3, §4

LC3B = test: Western blotting of kidney, LC3B; format: in vivo, mouse; conditions: cisplatin 20 mg/Kg i.p. vs control group
Experimental: as §1, §2, §3, §4

p62 = test: Western blotting of kidney, p62; format: in vivo, mouse; conditions: cisplatin 20 mg/Kg i.p. vs control group
Experimental: as §1, §2, §3, §4

Beclin-1 = test: Western blotting of kidney, Beclin-1; format: in vivo, mouse; conditions: cisplatin 20 mg/Kg i.p. vs control group
Experimental: as §1, §2, §3, §4

PI3K = test: Western blotting of kidney, PI3K; format: in vivo, mouse; conditions: cisplatin 20 mg/Kg i.p. vs control group
Experimental: as §1, §2, §3, §4

AKT = test: Western blotting of kidney, AKT; format: in vivo, mouse; conditions: cisplatin 20 mg/Kg i.p. vs control group
Experimental: as §1, §2, §3, §4

[5] = Amifostine 200 mg/Kg i.p. or high-dose WFV (1000 mg/Kg oral) vs cisplatin induction group
[6] = Amifostine 200 mg/Kg i.p. or WFV 1000 mg/kg oral in advance
[7] = Amifostine 200 mg/Kg i.p. or high-dose WFV (1000 mg/Kg oral) vs induction group
[8] = cisplatin 20 mg/Kg i.p. vs control group

SMILES: NCCCNCCSP(=O)(O)O [Ami, Amifostine]
- Body weight After [1]: 36.6 ± 0.18 g
- Kidney weight [2]: 0.55 ± 0.025 g
- expression level of iNOS (iNOS; [5]): decreased
- expression level of COX-2 (COX-2; [5]): decreased
- expression level of TLR4 (TLR4; [5]): decreased
- expression level of p-NFκB (p-NFκB; [5]): decreased
- expression level of SOD [3, 6]: not decreased
- expression level of catalase (catalase): not decreased
- expression level of GPX1 [4, 6]: not decreased
- expression level of Bcl-2 (Bcl-2; [7]): increased
- expression level of apoptogenic protein BAX (BAX; [7]): significantly decreased

SMILES: N.N.[Cl][Pt][Cl] [Cis, cisplatin]
- expression level of NO free radicals (nitrite in serum) (NO free radicals): increased remarkably
- concentration of TNF-α (TNF-α): increased
- concentration of IL-1β (IL-1β): increased
- concentration of IL-6 (IL-6): increased
- expression level of iNOS (iNOS; [8]): significant differences compared with the control group
- expression level of COX-2 (COX-2; [8]): significant differences compared with the control group
- expression level of TLR4 (TLR4; [8]): upward trend
- expression level of p-NFκB (p-NFκB; [8]): upward trend
- expression level of SOD [3, 8]: decreased
- expression level of GPX1 [4, 8]: decreased
- expression level of Nrf2 (Nrf2): significantly increased
- expression level of HO-1 (HO-1): significantly increased
- expression level of Bcl-2 (Bcl-2; [8]): decreased
- expression level of apoptogenic protein BAX (BAX; [8]): increased
- level of LC3B (LC3B): significantly increased
- level of p62 (p62): significantly increased
- level of Beclin-1 (Beclin-1): significantly increased
- expression level of PI3K (PI3K): significantly increased
- expression level of AKT (AKT): significantly increased
